Laboratory results taken from US20250145608A1, “KRAS DEGRADING COMPOUNDS COMPRISING ANNULATED 2-AMINO-3-CYANO THIOPHENES” (Boehringer Ingelheim Int'l GmbH Corp., priority 2021, published 2025).
Where two headings read alike, the source gives them in different places.

Tests used:
Type in all cases: cell-based
GP2D cells = assay: GP2D proliferation assay (120 h) (colorectal cancer, G12D)
Protocol: GP2D Proliferation Assay (120 h) (Colorectal Cancer, G12D)
GP2D cells (ATCC No. CRL-5807) are dispensed into white 384-well plates, flat and white bottom (Perkin Elmer, 6007680) at a density of 500 cells per well in 40 μl DMEM (Sigma, D6429)+1× GlutaMAX (Gibco, 35050038)+10% FCS (fetal calf serum). […] Compounds (10 mM stock in DMSO) are added at logarithmic dose series using the HP Digital Dispenser D300 (Tecan), including DMSO controls and normalizing for added DMSO. For the TO time point measurement, untreated cells are analyzed at the time of compound addition. Plates are incubated for 120 h, and cell viability is measured using CellTiter-Glo luminescent cell viability reagent (Promega product code G7570). Viability (stated as percent of control) is defined as relative luminescence units RLU of each well divided by the RLU of cells in DMSO controls. IC50 values are determined from viability measurements by non-linear regression using a four parameter model.

A375 cells = assay: A375 CTG proliferation assay (120 h) (melanoma, wt, B-Raf mutant, negative control); conditions: Homo sapiens, A-375, negative control cell line
Protocol: A375 CTG Proliferation Assay (120 h) (Melanoma, Wt, B-Raf Mutant, Negative Control)
A375 cells (ATCC CRL-1619) are dispensed into 384-well plates, flat and clear bottom (Greiner, PNr. 781091) at a density of 300 cells per well in 60 μL DMEM (Sigma D6429)+10% Fetal Calf Serum (HyClone, PNr.: SH30084.03) and incubated at 37° C. in a CO2 incubator overnight. The next day, compounds (10 mM stock in DMSO) are added at logarithmic dose series using the HP Digital Dispenser D300 (Tecan), including DMSO controls. Plates are incubated for 120 h, and cell viability is measured using CellTiter-Glo luminescent cell viability reagent (Promega product code G7570). Viability (stated as percent of control) is defined as relative luminescence units RLU of each well divided by the RLU of cells in DMSO controls. IC50 values are determined from viability measurements by non-linear regression using a four-parameter model.

SW620 cells = assay: SW620 cell proliferation assay (colorectal cancer, G12V), 5 days; conditions: Homo sapiens, SW-620, 120 h
How it was run: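 SW620 cells (2000/well, DMEM with 10% FCS) exposed to a logarithmic compound dilution series for 5 days. Viability by CellTiter-Glo luminescence as percent of DMSO control; IC50 from a four-parameter logistic fit.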

NCI-H358 cells = assay: NCI-H358 CTG proliferation assay (120 h) (NSCLC, G12C); conditions: Homo sapiens
How it was run: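 NCI-H358 cells (KRAS G12C) were seeded at 2000/well (assay 1) or 200/well (assay 2) in RPMI-1640 + 10% FCS and dosed with a logarithmic series, DMSO-normalized. After 120 h, viability was read by CellTiter-Glo luminescence as percent of DMSO control, with a T0 read at dosing. IC50 came from a four-parameter fit.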

KRAS4B G12D = target: T1, KRAS4B G12D (Homo sapiens, UniProt P01116, G12D); assay: HiBit KRAS4B mutant spectrum degradation assay, KRAS4B G12D in GP5d cells (18 h); conditions: KRAS mutation G12D
T1 construct: HiBit; expressed in transfected cells; host or cells: GP5d cells (ECACC 95090715), stably transduced with lentivirus, CMV promoter
T1 sequence (P01116 1-188 isoform P01116-2 G12D): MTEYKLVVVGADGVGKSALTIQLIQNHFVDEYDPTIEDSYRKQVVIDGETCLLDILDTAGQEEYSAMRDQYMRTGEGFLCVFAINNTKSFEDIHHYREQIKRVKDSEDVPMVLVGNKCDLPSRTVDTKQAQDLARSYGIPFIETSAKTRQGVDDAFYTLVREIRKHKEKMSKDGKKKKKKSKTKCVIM
From the text: (§1) The therapeutically relevant mutant KRAS constructs (WT, G12C, G12D, G12V, G13D) were obtained by site directed mutagenesis using a KRAS4B WT cDNA construct as a template. GP5d cells (ECACC Cat. No. 95090715) were transduced with lentiviral vectors expressing mutant KRAS4B cDNA under control of a CMV promoter. Stably transduced cells were selected using a neomycin selectable marker encoded on the construct.
(§2) To assess PROTAC-mediated degradation of various KRAS mutants, GP5d cells stably transduced with KRAS4B constructs as described above were seeded at 25000 cells per well in 100 μL Dulbecco's Modified Eagle medium (Sigma cat. no. D6429) supplemented with 10% fetal calf serum into white bottom opaque 96 well plates (Perkin Elmer cat no. 5680). Plates were incubated at 37° C., 5% CO2 in a humidified incubator over night to allow the cells to adhere. […] Plates were further incubated at 37° C. for 18 hours. Following incubation, 100 μL per well Promega Nano-Glo HiBit lytic detection reagent mix (Promega Nano-Glo HiBit Lytic Detection System #N3050), prepared according to the manufacturer's instructions in the kit, were added. To allow for adequate cell lysis, plates were incubated on an orbital shaker for 15 min and further incubated 30 min at room temperature. Upon completion of cell lysis, luminescence was measured using an Envision plate reader using the Ultrasensitive Luminescence Protocol for 96 well plates. Luminescence levels were normalized by the values obtained with DMSO-treated samples and plotted as percent of DMSO control. DC50 values were computed using a four parametric logistic model and are reported in nM in Table 65 for representative example (Ex.) compounds of the invention. Dmax values represent the maximal extent of degradation observed and is stated as percent of control (% Ctrl.) treatments in Table 66 for representative example (Ex.) compounds of the invention.

KRAS4B G12V = target: T2, KRAS4B G12V (Homo sapiens, UniProt P01116, G12V); assay: HiBit KRAS4B mutant spectrum degradation assay, KRAS4B G12V in GP5d cells (18 h); conditions: KRAS mutation G12V
T2 construct: HiBit; expressed in transfected cells; host or cells: GP5d cells (ECACC 95090715), stably transduced with lentivirus, CMV promoter
T2 sequence (P01116 1-188 isoform P01116-2 G12V): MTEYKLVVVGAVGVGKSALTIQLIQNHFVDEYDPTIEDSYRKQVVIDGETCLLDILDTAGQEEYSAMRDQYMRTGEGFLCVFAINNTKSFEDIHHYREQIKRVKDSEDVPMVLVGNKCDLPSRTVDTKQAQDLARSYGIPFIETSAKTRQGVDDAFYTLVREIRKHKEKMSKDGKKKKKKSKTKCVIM
From the text: as §1, §2

[1] = assay 1, read-out: H358 (assay 1) IC50
[2] = assay 2, read-out: H358 (assay 2) IC50

Structure (SMILES)	IC50 (GP2D cells) [µM]	IC50 (A375 cells) [µM]	IC50 (SW620 cells) [µM]	IC50 (NCI-H358 cells; [1]) [µM]	IC50 (NCI-H358 cells; [2]) [µM]	DC50 (KRAS4B G12D) [µM]	Dmax at 18 h (KRAS4B G12D) [% Ctrl.]	DC50 (KRAS4B G12V) [µM]	Dmax at 18 h (KRAS4B G12V) [% Ctrl.]
Cc1ncsc1-c1ccc([C@@H](NC(=O)[C@@H]2C[C@@H](O)CN2C(=O)[C@H](C(C)C)n2cc(OCCCCN3CCCN(c4nccc(-c5noc([C@@]6(C)CCCc7sc(N)c(C#N)c76)n5)n4)[C@@H](C)C3)nn2)[C@H](O)C(C)C)cc1 (single isomer, unassigned) [I-45]	0.0094	≥ 3	0.0145	0.0986	0.0134	–	–	–	–
Cc1ncsc1-c1ccc(CNC(=O)[C@@H]2C[C@@H](O)CN2C(=O)[C@H](c2cc(OCCCN3CCCN(c4nccc(-c5noc([C@@]6(C)CCCc7sc(N)c(C#N)c76)n5)n4)[C@@H](C)C3)no2)C(C)C)cc1 (single isomer, unassigned) [I-24]	–	–	0.802	1.07	1.44	–	–	–	–
Cc1ncsc1-c1ccc(CNC(=O)[C@@H]2C[C@@H](O)CN2C(=O)[C@@H](c2cc(OCCCCN3CCCN(c4nccc(-c5noc([C@@]6(C)CCCc7sc(N)c(C#N)c76)n5)n4)[C@@H](C)C3)no2)C(C)C)cc1 (single isomer, unassigned) [I-27]	0.0051	≥ 3	0.0149	0.0605	0.0352	0.0011	95	0.0027	86
Cc1ncsc1-c1ccc([C@@H](NC(=O)[C@@H]2C[C@@H](O)CN2C(=O)[C@H](C(C)C)n2cc(OCCCCN3CCCN(c4nccc(-c5noc([C@@]6(C)CCCc7sc(N)c(C#N)c76)n5)n4)[C@@H](C)C3)nn2)[C@H](C)O)cc1 (single isomer, unassigned) [I-41]	0.0077	≥ 3	0.0105	0.0596	0.0149	0.0013	96.1	0.0025	90.8
CC(C)C(C(=O)N1C[C@H](O)C[C@H]1C(=O)NCc1ccc(C#N)cc1)c1cc(OCCCCN2CCCN(c3nccc(-c4noc([C@@]5(C)CCCc6sc(N)c(C#N)c65)n4)n3)[C@@H](C)C2)no1 (some centres unmarked) [I-16]	0.0333	≥ 3	0.0371	0.231	0.0855	–	–	–	–
Cc1ncsc1-c1ccc([C@H](CO)NC(=O)[C@@H]2C[C@@H](O)CN2C(=O)[C@H](C(C)C)n2cc(OC(C)CCCN3CCCN(c4nccc(-c5noc([C@@]6(C)CCCc7sc(N)c(C#N)c76)n5)n4)[C@@H](C)C3)nn2)cc1 (some centres unmarked) [I-31]	0.0261	≥ 3	0.0621	0.159	–	0.0033	95.8	0.0087	89.2
Cc1ncsc1-c1ccc([C@H](CO)NC(=O)[C@@H]2C[C@@H](O)CN2C(=O)[C@H](C(C)C)n2cc(OCCCCN3CCCN(c4nccc(-c5noc([C@@]6(C)CCCc7sc(N)c(C#N)c76)n5)n4)[C@@H](C)C3)nn2)cc1 [I-29]	0.0085	≥ 3	0.0264	0.0288	–	0.0015	96.0	0.0035	90.5
Cc1ncsc1-c1ccc([C@H](CCO)NC(=O)[C@@H]2C[C@@H](O)CN2C(=O)[C@H](C(C)C)n2cc(OCCCCN3CCCN(c4nccc(-c5noc([C@@]6(C)CCCc7sc(N)c(C#N)c76)n5)n4)[C@@H](C)C3)nn2)cc1 [I-38]	0.0126	≥ 3	0.0284	0.0988	–	–	–	–	–
Cc1ncsc1-c1ccc([C@H](C)NC(=O)[C@@H]2C[C@@H](O)CN2C(=O)C(C(C)C)n2cc(OCCCCN3CCCN(c4nccc(-c5noc([C@@]6(C)CCCc7sc(N)c(C#N)c76)n5)n4)[C@@H](C)C3)nn2)cc1 (some centres unmarked) [I-28]	0.0029	1.09	0.0132	0.032	0.0814	–	–	–	–
Cc1ncsc1-c1ccc([C@@H](NC(=O)[C@@H]2C[C@@H](O)CN2C(=O)[C@H](C(C)C)n2cc(OCCCN3CCCN(c4nccc(-c5noc([C@@]6(C)CCCc7sc(N)c(C#N)c76)n5)n4)[C@@H](C)C3)nn2)[C@H](O)C(C)C)cc1 (single isomer, unassigned) [I-43]	0.0066	≥ 3	0.0094	0.0508	0.0081	0.0013	95.8	0.0026	89.4
Cc1ncsc1-c1ccc([C@H](CO)NC(=O)[C@@H]2C[C@@H](O)CN2C(=O)[C@H](C(C)C)n2cc(OCCCC(C)N3CCCN(c4nccc(-c5noc([C@@]6(C)CCCc7sc(N)c(C#N)c76)n5)n4)[C@@H](C)C3)nn2)cc1 (some centres unmarked) [I-30]	0.0064	≥ 3	0.018	0.0293	–	0.0008	96.1	0.0022	91.0
Cc1ncsc1-c1ccc(CNC(=O)[C@@H]2C[C@@H](O)CN2C(=O)[C@@H](c2cc(OCCCN3CCCN(c4nccc(-c5noc([C@@]6(C)CCCc7sc(N)c(C#N)c76)n5)n4)[C@@H](C)C3)no2)C(C)C)cc1 (single isomer, unassigned) [I-25]	–	–	0.00988	0.0456	0.0639	0.0013	96	0.0038	90.5
Cc1ncsc1-c1ccc(CNC(=O)[C@@H]2C[C@@H](O)CN2C(=O)C(c2cc(OCCCCN3CCCN(c4nccc(-c5cc([C@@]6(C)CCCc7sc(N)c(C#N)c76)on5)n4)[C@@H](C)C3)no2)C(C)C)cc1 (some centres unmarked) [I-4]	–	–	0.0534	0.445	0.196	–	–	–	–
